One block for each compound: values may come before it. Active and inactive are the calls of the source.
How the values were obtained:
[1] = target: Dual specificity protein kinase CLK4 (Homo sapiens, UniProt Q9HAZ1); assay type: functional
[2] = target: MAP kinase-interacting serine/threonine-protein kinase 2 (Homo sapiens, UniProt Q9HBH9); assay type: functional
[3] = target: Mitogen-activated protein kinase kinase kinase kinase 4 (Homo sapiens, UniProt O95819); assay type: functional
[4] = target: Cell division cycle 7-related protein kinase (Homo sapiens, UniProt O00311); assay type: functional;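 also: value obtained from a kinome-wide kinase panel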
[5] = target: cAMP-dependent protein kinase catalytic subunit alpha (Homo sapiens, UniProt P17612); assay type: functional
[6] = target: Interleukin-1 receptor-associated kinase 4 (Homo sapiens, UniProt Q9NWZ3); assay type: functional
[7] = target: Serine/threonine-protein kinase pim-1 (Homo sapiens, UniProt P11309); assay type: functional
[8] = target: Homeodomain-interacting protein kinase 2 (Homo sapiens, UniProt Q9H2X6); assay type: functional;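 also: measured within a kinome-wide kinase profiling panel, HIPK2 being one panel member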
[9] = target: Glycogen synthase kinase-3 beta (Homo sapiens, UniProt P49841); assay type: functional;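 also: value comes from a broad kinome profiling panel, with GSK3B as the panel member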
LIM domain kinase 1 = LIM domain kinase 1 (Homo sapiens, UniProt P53667); test: Navigating the Kinome. Panel member name: LIMK1; assay type: functional
[10] = target: T1, Serine/threonine-protein kinase Chk1 (Homo sapiens, UniProt O14757); assay type: functional;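 also: measured as one member of a kinome-wide kinase profiling panel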
T1 sequence (O14757 whole entry): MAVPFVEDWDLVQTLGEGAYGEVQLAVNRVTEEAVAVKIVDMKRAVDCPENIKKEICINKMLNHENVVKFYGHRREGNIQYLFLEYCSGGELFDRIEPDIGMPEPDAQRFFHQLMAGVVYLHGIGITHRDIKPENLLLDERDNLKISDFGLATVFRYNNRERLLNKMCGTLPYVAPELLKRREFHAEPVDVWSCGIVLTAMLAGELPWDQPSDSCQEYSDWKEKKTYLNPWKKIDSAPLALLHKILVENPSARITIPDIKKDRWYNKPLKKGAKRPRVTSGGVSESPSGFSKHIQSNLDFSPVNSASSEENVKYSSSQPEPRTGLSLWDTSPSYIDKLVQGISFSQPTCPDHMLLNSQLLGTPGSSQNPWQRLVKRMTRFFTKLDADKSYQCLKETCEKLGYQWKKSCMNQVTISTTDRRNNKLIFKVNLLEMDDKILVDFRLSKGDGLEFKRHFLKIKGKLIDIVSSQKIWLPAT

[11] = target: Cyclin-dependent kinase 5 (Homo sapiens, UniProt Q00535); assay type: functional;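 also: CDK5 measured as one member of a kinase profiling panel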
[12] = target: DNA dC->dU-editing enzyme APOBEC-3A (Homo sapiens, UniProt P31941); test: SAR analysis of small molecule inhibitors of APOBEC3A DNA Deaminase via a fluorescence-based single-stranded DNA deaminase assay.; assay type: functional; conditions: read-out: IC50_Mean
[13] = target: DNA dC->dU-editing enzyme APOBEC-3G (Homo sapiens, UniProt Q9HC16); test: APOBEC3G deaminase inhibitors, SAR follow-up, biochemical, fluorescence, single-stranded DNA substrate (AID 602136); assay type: functional; conditions: read-out: IC50_Mean
[14] = target: T2, RNA-binding protein pos-1 (Caenorhabditis elegans, UniProt G5EF15); test: inhibitors of POS-1/mex-3 RNA binding, dose response, biochemical, fluorescence polarization (AID 1964);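 also: purified POS-1 fused to maltose binding protein made in E. coli; potency of compounds blocking POS-1 binding to fluorescent RNA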
T2 sequence (G5EF15 whole entry): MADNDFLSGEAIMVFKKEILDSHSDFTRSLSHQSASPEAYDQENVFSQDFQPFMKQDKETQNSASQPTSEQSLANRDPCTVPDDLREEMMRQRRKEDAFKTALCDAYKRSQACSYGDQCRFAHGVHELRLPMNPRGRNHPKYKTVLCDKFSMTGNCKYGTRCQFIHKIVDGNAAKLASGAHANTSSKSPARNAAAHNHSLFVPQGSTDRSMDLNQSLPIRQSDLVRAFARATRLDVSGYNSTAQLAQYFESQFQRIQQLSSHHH

[15] = target: 26S proteasome non-ATPase regulatory subunit 14 (Homo sapiens, UniProt O00487); test: inhibition of proteasome subunit RPN11 – biochemical, fluorescence polarization, uHTS hits, confirmation (AID 602368); assay type: functional
[16] = target: T3, Zinc finger protein mex-5 (Caenorhabditis elegans, UniProt Q9XUB2); test: MEX-5/TCR-2 RNA interaction inhibitors, dose response, biochemical, C. elegans, fluorescence polarization (AID 1960)
T3 sequence (Q9XUB2 whole entry): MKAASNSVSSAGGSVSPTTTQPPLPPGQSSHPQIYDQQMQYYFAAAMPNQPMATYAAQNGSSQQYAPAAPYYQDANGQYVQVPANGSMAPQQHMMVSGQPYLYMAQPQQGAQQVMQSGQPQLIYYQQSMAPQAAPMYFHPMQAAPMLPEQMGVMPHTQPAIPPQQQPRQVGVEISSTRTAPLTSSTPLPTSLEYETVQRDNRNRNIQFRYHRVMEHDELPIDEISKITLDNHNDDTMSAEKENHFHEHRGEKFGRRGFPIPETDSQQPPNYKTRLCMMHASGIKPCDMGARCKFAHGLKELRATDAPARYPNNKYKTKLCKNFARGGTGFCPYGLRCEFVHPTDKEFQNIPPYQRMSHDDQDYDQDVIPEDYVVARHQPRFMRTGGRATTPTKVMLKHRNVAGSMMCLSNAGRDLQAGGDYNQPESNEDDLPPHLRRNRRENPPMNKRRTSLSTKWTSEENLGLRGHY

[17] = target: 72 kDa type IV collagenase (Homo sapiens, UniProt P08253); test: Dose Response validation of uHTS RPN11 inhibitor hits using a MMP-2 Fluorescence assay.; assay type: functional
Prothrombin = Prothrombin (Bos taurus, UniProt P00735); test: thrombin inhibition, dose response, biochemical, fluorescence polarization, uHTS hits (AID 602369); assay type: functional
[18] = target: Mitogen-activated protein kinase kinase kinase 10 (Homo sapiens, UniProt Q02779); test: Navigating the Kinome. Panel member name: MAP3K10; assay type: functional
[19] = target: MAP kinase-activated protein kinase 3 (Homo sapiens, UniProt Q16644); assay type: functional;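 also: value comes from a kinome-wide profiling panel in which MAPKAPK3 is one of the panel members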
[20] = target: G protein-coupled receptor kinase 5 (Homo sapiens, UniProt P34947); test: Navigating the Kinome. Panel member name: GPRK5; assay type: functional
[21] = target: Protein kinase C gamma type (Homo sapiens, UniProt P05129); assay type: functional
[22] = target: Serine/threonine-protein kinase D2 (Homo sapiens, UniProt Q9BZL6); assay type: functional;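 also: measured against PRKD2 as one member of a kinome-wide kinase profiling panel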

Dual specificity protein kinase CLK4, sequence (Q9HAZ1 whole entry): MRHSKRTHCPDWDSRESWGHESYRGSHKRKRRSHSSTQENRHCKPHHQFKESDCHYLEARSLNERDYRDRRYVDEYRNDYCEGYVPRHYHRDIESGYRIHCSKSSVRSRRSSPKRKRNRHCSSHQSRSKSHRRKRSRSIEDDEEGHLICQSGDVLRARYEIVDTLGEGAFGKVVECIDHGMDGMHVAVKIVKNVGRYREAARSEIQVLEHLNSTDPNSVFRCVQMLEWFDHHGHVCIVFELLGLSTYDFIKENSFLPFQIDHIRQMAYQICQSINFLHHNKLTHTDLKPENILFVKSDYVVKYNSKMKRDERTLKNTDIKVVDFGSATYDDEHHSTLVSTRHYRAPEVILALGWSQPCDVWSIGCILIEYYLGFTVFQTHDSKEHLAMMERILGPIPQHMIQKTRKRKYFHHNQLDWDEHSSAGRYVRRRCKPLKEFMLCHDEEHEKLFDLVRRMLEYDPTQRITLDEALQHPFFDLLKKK
Homeodomain-interacting protein kinase 2, sequence (Q9H2X6 whole entry): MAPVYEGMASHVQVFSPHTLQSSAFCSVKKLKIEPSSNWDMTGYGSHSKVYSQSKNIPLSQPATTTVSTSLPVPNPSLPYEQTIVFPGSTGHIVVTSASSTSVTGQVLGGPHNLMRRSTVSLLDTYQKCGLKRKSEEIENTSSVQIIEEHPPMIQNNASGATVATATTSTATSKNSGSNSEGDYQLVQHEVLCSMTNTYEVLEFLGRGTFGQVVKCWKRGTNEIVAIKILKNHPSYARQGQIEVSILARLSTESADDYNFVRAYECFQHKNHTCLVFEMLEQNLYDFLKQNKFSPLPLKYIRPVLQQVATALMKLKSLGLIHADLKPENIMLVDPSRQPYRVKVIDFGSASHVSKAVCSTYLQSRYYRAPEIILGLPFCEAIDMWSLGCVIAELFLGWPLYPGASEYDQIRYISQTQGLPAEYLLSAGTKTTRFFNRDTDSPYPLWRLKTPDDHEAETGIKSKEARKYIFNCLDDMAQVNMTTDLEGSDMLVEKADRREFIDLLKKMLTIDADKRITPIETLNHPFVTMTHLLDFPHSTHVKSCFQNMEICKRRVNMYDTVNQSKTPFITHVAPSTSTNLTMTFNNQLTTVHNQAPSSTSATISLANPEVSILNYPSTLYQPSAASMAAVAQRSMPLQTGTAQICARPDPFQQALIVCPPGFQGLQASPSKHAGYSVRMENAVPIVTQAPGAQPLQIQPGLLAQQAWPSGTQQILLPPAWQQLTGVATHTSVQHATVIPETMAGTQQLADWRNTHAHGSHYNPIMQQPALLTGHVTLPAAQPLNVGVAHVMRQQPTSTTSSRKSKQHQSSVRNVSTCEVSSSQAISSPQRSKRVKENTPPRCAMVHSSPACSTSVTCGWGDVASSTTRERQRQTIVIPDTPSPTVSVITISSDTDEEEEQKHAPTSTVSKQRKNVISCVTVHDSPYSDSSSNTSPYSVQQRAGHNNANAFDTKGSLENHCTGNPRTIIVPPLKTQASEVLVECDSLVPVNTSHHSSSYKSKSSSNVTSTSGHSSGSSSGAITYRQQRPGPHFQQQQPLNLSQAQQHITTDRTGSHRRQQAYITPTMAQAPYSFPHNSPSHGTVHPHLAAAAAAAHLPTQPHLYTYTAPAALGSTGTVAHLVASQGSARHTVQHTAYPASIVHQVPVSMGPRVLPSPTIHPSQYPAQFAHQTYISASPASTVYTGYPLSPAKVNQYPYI
Serine/threonine-protein kinase pim-1, sequence (P11309 whole entry): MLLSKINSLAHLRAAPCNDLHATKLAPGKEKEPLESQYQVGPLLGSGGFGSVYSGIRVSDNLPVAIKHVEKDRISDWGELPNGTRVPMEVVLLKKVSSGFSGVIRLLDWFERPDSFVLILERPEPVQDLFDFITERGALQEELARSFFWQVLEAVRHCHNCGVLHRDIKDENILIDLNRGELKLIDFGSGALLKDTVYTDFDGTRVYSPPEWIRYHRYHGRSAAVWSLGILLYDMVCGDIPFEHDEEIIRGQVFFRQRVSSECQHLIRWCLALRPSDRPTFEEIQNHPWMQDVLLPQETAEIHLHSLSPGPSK
Glycogen synthase kinase-3 beta, sequence (P49841 whole entry, the tested form may be a part): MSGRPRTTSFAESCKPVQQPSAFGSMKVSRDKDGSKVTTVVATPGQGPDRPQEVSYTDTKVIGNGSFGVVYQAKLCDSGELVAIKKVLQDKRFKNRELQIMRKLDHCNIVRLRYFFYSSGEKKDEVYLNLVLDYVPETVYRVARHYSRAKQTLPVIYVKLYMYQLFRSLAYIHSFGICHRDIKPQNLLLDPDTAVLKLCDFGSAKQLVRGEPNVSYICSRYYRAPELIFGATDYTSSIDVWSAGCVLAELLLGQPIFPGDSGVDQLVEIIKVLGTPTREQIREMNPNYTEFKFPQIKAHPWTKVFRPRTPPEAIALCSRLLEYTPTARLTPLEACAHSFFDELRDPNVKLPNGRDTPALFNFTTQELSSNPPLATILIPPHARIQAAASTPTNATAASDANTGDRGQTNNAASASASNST
MAP kinase-activated protein kinase 3, sequence (Q16644 whole entry): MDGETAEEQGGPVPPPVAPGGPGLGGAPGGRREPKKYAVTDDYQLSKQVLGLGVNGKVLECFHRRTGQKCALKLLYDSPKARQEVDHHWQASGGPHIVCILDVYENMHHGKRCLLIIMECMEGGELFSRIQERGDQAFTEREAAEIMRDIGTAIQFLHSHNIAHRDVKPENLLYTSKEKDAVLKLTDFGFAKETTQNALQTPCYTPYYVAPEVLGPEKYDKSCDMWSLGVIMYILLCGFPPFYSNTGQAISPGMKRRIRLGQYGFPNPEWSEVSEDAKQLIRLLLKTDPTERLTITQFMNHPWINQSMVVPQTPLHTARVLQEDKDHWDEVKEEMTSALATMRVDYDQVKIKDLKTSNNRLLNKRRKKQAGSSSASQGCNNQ
Mitogen-activated protein kinase kinase kinase 10, sequence (Q02779 whole entry): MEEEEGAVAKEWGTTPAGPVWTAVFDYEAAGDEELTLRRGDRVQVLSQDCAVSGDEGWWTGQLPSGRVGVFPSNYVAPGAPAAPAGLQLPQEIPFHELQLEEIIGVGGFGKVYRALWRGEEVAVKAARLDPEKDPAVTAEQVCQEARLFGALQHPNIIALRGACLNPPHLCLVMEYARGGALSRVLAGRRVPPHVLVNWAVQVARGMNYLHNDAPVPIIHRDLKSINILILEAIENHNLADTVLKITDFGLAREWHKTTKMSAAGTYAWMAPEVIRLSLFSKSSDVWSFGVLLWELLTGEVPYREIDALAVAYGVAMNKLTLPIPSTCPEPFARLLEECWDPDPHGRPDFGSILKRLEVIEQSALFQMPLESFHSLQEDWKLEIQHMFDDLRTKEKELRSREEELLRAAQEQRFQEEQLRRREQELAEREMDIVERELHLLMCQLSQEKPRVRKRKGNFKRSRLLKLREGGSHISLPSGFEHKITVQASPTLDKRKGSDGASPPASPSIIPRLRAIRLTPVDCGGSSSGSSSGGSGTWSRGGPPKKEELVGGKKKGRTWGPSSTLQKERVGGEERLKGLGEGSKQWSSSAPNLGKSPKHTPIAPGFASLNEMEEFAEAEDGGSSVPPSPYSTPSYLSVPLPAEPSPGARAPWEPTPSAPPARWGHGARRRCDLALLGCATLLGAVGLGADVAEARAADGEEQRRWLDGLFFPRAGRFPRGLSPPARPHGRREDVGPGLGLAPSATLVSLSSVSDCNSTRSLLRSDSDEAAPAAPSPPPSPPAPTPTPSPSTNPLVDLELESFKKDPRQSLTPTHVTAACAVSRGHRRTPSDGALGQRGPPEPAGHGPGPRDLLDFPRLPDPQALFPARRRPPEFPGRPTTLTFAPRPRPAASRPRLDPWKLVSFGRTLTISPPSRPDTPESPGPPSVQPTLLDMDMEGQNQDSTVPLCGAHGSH
DNA dC->dU-editing enzyme APOBEC-3G, sequence (Q9HC16 whole entry, the tested form may be a part): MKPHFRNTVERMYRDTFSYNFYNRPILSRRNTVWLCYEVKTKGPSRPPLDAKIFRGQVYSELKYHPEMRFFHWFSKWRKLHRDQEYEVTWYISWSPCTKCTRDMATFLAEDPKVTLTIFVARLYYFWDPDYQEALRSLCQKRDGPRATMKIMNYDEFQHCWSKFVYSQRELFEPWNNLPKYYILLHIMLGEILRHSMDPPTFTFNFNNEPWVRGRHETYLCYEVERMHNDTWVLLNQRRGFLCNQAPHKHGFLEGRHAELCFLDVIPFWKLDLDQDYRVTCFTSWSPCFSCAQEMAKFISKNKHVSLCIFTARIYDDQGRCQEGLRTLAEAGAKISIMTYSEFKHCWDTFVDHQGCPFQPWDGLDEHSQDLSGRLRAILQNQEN
Cyclin-dependent kinase 5, sequence (Q00535 whole entry): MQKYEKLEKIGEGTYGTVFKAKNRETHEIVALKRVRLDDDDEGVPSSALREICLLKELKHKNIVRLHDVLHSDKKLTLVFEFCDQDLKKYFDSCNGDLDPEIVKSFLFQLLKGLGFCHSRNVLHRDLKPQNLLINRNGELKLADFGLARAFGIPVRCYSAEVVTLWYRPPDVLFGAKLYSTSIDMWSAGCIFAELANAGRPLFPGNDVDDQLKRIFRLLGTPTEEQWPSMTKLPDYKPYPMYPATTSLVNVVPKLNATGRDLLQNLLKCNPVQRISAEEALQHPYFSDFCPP
26S proteasome non-ATPase regulatory subunit 14, sequence (O00487 whole entry): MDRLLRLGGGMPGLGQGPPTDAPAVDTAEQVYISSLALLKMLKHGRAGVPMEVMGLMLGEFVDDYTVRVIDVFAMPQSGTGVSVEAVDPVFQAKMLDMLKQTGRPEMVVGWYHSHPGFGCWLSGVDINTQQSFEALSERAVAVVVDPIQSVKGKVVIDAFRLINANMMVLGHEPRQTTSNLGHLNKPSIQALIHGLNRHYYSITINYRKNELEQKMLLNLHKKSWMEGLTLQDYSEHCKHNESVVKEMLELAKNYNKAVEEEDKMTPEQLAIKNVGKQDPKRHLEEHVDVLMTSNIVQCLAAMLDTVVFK
DNA dC->dU-editing enzyme APOBEC-3A, sequence (P31941 whole entry): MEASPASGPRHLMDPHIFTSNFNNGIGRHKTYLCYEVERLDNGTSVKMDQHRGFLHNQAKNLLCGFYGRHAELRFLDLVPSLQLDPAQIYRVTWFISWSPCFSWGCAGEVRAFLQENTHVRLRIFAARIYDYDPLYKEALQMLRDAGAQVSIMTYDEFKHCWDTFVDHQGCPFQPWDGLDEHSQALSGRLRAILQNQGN

- Ki [1]: 3.16 nM (active)
- Ki [2]: 25.1 nM (active)
- Ki [3]: 15.8 nM (active)
- Ki [4]: 20 nM (active)
- Ki [5]: 12.6 nM (active)
- Ki [6]: 15.8 nM (active)
- Ki [7]: 1260 nM (active)
- Ki [8]: 316 nM (active)
- Ki [9]: 126 nM (active)
SMILES: CC(C)(Nc1nccc(-c2c[nH]c3ncccc23)n1)c1ccccc1

- Ki [1]: 1580 nM (active)
- Ki (LIM domain kinase 1): 3160 nM (active)
- Ki [10]: 2510 nM (active)
- Ki [11]: 2510 nM (active)
SMILES: O=[N+]([O-])c1ccc2[nH]c(-c3ccco3)nc2c1

- EC50 [14]: > 300000 nM (not active)
- IC50 [15]: 28600 nM (active)
- EC50 [16]: 27400 nM (active)
- IC50 [17]: > 100000 nM (inactive)
- IC50 (Prothrombin): 19800 nM (active)
SMILES: O=C(N/N=C/c1ccc(-c2ccc([N+](=O)[O-])cc2)o1)c1cccnc1

More lines, now with the values behind:

SMILES: CCn1c(=O)c2ccccc2n2c(COc3ccc4c(C(F)(F)F)cc(=O)oc4c3)nnc12
- IC50 [12]: > 99000 nM (inactive)
- IC50 [13]: > 99000 nM (inactive)

SMILES: O=C(O)c1ccc(Nc2ncc3c(n2)-c2ccc(Cl)cc2C(c2c(F)cccc2F)=NC3)cc1 [MLN-8054]
- Ki [18]: > 3160 nM (inactive)
- Ki [19]: > 10000 nM (inactive)
- Ki [20]: 1000 nM (active)
- Ki [21]: > 7940 nM (inactive)
- Ki [22]: > 10000 nM (inactive)
